Reference: patent US6469028B1, “Synthesis and use of retinoid compounds having negative hormone and/or anatgonist activities” (Allergan, Inc., priority 1995, dated 2002)

Assays:
Experiment in all cases: Holoreceptor transactivation assay
Type in all cases: cell-based
Design in all cases: expressed in transfected cells; host or cells: CV1 cells
RARγ = biological target: T1, RARγ (Homo sapiens, UniProt P13631); details: relative to all trans retinoic acid; read-out: Transactivation Assay Efficacy (% of RA activity) RARγ
T1 sequence (P13631 1-454): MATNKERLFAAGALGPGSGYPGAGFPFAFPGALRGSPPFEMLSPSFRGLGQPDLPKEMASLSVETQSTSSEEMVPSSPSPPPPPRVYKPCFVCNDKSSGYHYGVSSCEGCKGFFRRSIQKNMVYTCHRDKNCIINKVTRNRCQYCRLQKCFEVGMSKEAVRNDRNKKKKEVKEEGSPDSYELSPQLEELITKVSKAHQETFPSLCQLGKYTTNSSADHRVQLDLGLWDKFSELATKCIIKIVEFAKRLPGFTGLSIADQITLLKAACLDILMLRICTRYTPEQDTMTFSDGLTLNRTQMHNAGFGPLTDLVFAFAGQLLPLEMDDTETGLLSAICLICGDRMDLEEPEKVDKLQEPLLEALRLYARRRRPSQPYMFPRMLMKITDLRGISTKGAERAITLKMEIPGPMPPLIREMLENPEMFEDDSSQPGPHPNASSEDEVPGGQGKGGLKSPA
Source text: (§1) A holoreceptor transactivation assay and a ligand binding assay which measure the antagonist/agonist like activity of the compounds of the invention, or their ability to bind to the several retinoid receptor subtypes, respectively, are described in published PCT Application No. WO93/11755 (particularly on pages 30-33 and 37-41) published on Jun. 24, 1993, the specification of which is also incorporated herein by reference. A description of the holoreceptor transactivation assay is also provided below.
(§2) CV1 cells (5,000 cells/well) were transfected with an RAR reporter plasmid MTV-TREp-LUC (50 ng) along with one of the RAR expression vectors (10 ng) in an automated 96-well format by the calcium phosphate procedure of Heyman et al. Cell 68: 397-406. For RXR-α and RXR-γ transactivation assays, an RXR-responsive reporter plasmid CRBPII-tk-LUC (50 ng) along with the appropriate RXR expression vectors (10 ng) was used substantially as described by Heyman et al. above, and Allegretto et al. J. Biol. Chem. 268: 26625-26633. For RXR-β transactivation assays, an RXR-responsive reporter plasmid CPRE-tk-LUC ([…]) along with RXR-β expression vector ([…]) was used as described in above. These reporters contain DRI elements from human CRBPII and certain DRI elements from promotor, respectively (see Mangelsdorf et al. The Retinoids: Biology Chemistry and Medicine, pp. 319-349, Raven Press Ltd., New York and Heyman et al., cited above). A β-galactosidase (50 ng) expression vector was used as an internal control in the transfections to normalize for variations in transfection efficiency. The cells were transfected in triplicate for 6 hours, followed by incubation with retinoids for 36 hours, and the extracts were assayed for luciferase and […] activities. The detailed experimental procedure for holoreceptor transactivations has been described in Heyman et al. above, and Allegretto et al. cited above. The results obtained in this assay are expressed in EC50 numbers, as they are also in the chimeric receptor transactivation assay. The Heyman et al. Cell 68: 397-406, Allegretto et al. J. Biol. Chem. 268: 26625-26633, and Mangelsdorf et al. The Retinoids: Biology, Chemistry, and Medicine, pp. 319-349, Raven Press Ltd., New York, are expressly incorporated herein by reference. The results of ligand binding assay are expressed in Kd numbers. (See Cheng et al. Biochemical Pharmacology 22: 3099-3108, expressly incorporated herein by reference.)
(§3) A compound should not cause significant activation of a reporter gene through a given receptor subtype (RAR-α, RAR-β or RAR-γ) in the holoreceptor transactivation assay, in order to qualify as an RAR antagonist with utility in the present invention.

RARβ = biological target: T2, RARβ (Homo sapiens, UniProt P10826); details: relative to all trans retinoic acid; read-out: Transactivation Assay Efficacy (% of RA activity) RARβ
T2 sequence (P10826 1-448 isoform P10826-2): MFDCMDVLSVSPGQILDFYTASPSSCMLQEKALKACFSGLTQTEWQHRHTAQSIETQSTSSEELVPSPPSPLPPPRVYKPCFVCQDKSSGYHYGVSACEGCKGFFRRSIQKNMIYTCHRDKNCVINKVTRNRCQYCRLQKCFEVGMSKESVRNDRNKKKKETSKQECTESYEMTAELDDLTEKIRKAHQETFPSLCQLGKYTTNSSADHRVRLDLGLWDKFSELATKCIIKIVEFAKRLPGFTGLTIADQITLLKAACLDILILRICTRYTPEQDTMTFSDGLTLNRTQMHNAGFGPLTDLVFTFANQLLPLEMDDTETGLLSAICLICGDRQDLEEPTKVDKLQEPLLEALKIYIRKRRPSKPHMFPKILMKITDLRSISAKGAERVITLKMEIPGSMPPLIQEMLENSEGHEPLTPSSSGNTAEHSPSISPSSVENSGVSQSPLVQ
Source text: as §1, §2, §3

RARα = biological target: T3, RARα (Homo sapiens, UniProt P10276); details: relative to all trans retinoic acid; read-out: Transactivation Assay Efficacy (% of RA activity) RARα
T3 sequence (P10276 1-462): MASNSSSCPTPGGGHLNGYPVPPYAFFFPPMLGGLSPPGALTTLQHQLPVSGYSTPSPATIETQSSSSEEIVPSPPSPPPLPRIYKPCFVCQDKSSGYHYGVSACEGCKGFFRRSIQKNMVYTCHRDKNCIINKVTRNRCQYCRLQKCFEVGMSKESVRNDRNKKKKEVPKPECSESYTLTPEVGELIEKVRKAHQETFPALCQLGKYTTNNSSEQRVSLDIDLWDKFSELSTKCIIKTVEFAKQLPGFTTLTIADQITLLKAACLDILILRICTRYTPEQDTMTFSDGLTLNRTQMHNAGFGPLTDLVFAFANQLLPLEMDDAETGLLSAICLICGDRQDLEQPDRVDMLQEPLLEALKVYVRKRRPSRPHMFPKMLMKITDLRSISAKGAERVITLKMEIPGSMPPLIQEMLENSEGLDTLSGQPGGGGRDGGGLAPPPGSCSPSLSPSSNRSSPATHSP
Source text: as §1, §2, §3

| Compound | Emax (RARγ) [%] | Emax (RARβ) [%] | Emax (RARα) [%] |
| --- | --- | --- | --- |
| Cc1ccc(C2=CCC(C)(C)c3ccc(C#Cc4ccc(C(=O)O)cc4)cc32)cn1 [Compound 18, 4-[(5,6-Dihydro-5,5-dimethyl-8-(2-methyl-5-pyridyl)-2-naphthalenyl)ethynyl]benzoic acid] | 0 | 1 | 4 |
| CC1(C)CC=C(c2ccccn2)c2cc(C#Cc3ccc(C(=O)O)cc3)ccc21 [Compound 19, 4-[(5,6-Dihydro-5,5-dimethyl-8-(2-pyridyl)-2-naphthalenyl)ethynyl]benzoic acid] | 3 | 5 | 0 |
| Cc1cccc(C2=CCC(C)(C)c3ccc(C#Cc4ccc(C(=O)O)cc4)cc32)c1 [Compound 20, 4-[(5,6-Dihydro-5,5-dimethyl-8-(3-methylphenyl)-2-naphthalenyl)ethynyl]benzoic acid] | 0 | 4 | 3 |
| CCc1ccc(C2=CCC(C)(C)c3ccc(C#Cc4ccc(C(=O)O)cc4)cc32)cc1 [Compound 21, 4-[(5,6-Dihydro-5,5-dimethyl-8-(4-ethylphenyl)-2-naphthalenyl)ethynyl]benzoic acid] | 2 | 2 | 2 |
| COc1ccc(C2=CCC(C)(C)c3ccc(C#Cc4ccc(C(=O)O)cc4)cc32)cc1 [Compound 22, 4-[(5,6-Dihydro-5,5-dimethyl-8-(4-methoxyphenyl)-2-naphthalenyl)ethynyl]benzoic acid] | 2 | 0 | 0 |
| CC1(C)CC=C(c2ccc(C(F)(F)F)cc2)c2cc(C#Cc3ccc(C(=O)O)cc3)ccc21 [Compound 23, 4-[(5,6-Dihydro-5,5-dimethyl-8-(4-trifluoromethylphenyl)-2-naphthalenyl)ethynyl]benzoic acid] | 3 | 6 | 0 |
| Cc1cc(C)cc(C2=CCC(C)(C)c3ccc(C#Cc4ccc(C(=O)O)cc4)cc32)c1 [Compound 24, 4-[(5 6-Dihydro-5,5-dimethyl-8-(3,5-dimethylphenyl)-2-naphthalenyl)ethynyl]benzoic acid] | 4 | 7 | 3 |
| CC1(C)CC=C(c2ccc(Cl)cc2)c2cc(C#Cc3ccc(C(=O)O)cc3)ccc21 [Compound 25, 4-[(5,6-Dihydro-5,5-dimethyl-8-(4-chlorophenyl)-2-naphthalenyl)ethynyl]benzoic acid] | 3 | 3 | 2 |
| CC1(C)CC=C(c2cccnc2)c2cc(C#Cc3ccc(C(=O)O)cc3)ccc21 [Compound 26, 4-[(5,6-Dihydro-5,5-dimethyl-8-(3-pyridyl)-2-naphthalenyl)ethynyl]benzoic acid] | 0 | 6 | 1 |
| Cc1ccccc1C1=CCC(C)(C)c2ccc(C#Cc3ccc(C(=O)O)cc3)cc21 [Compound 27, 4-[(5,6-Dihydro-5,5-dimethyl-8-(2-methylphenyl)-2-naphthalenyl)ethynyl]benzoic acid] | 6 | 14 | 9 |
| CC1(C)CC=C(c2cccc(O)c2)c2cc(C#Cc3ccc(C(=O)O)cc3)ccc21 [Compound 28, 4-[(5,6-Dihydro5,5-dimethyl-8-(3-hydroxyphenyl)-2-naphthalenyl)ethynyl]benzoic acid] | 2 | 10 | 2 |
| CC1(C)CC=C(c2ccc(O)cc2)c2cc(C#Cc3ccc(C(=O)O)cc3)ccc21 [Compound 29, 4-[(5,6-Dihydro-5,5-dimethyl-8-(4-hydroxyphenyl)-2-naphthalenyl)ethynyl]benzoic acid] | 11 | 6 | 0 |
| Cc1cnc(C2=CCC(C)(C)c3ccc(C#Cc4ccc(C(=O)O)cc4)cc32)s1 [Compound 30, 4-[(5,6-Dihydro-5,5-dimethyl-8-(5-methylthiazol-2-yl)-2-naphthalenyl)ethynyl]benzoic acid] | 1 | 5 | 3 |
| Cc1csc(C2=CCC(C)(C)c3ccc(C#Cc4ccc(C(=O)O)cc4)cc32)n1 [Compound 31, 4-[(5,6-Dihydro-5,5-dimethyl-8-(4-methylthiazol-2-yl)-2-naphthalenyl)ethynyl]benzoic acid] | 2 | 14 | 4 |
| Cc1nc(C2=CCC(C)(C)c3ccc(C#Cc4ccc(C(=O)O)cc4)cc32)sc1C [Compound 32] | 2 | 2 | 0 |
| Cc1ccc(C2=CCC(C)(C)c3ccc(C#Cc4ccc(C(=O)O)cc4)cc32)s1 [Compound 34, 4-[(5,6-Dihydro-5,5-dimethyl-8-(5-methyl-2-thienyl)-2-naphthalenyl)ethynyl]benzoic acid] | 2 | 5 | 3 |
| Cc1ccc(C2=CCC(C)(C)c3ccc(C(=O)Nc4ccc(C(=O)O)cc4)cc32)cc1 [Compound 36, 4-[[(5,6-Dihydro-5,5-dimethyl-8-(4-methylphenyl)-2-naphthalenyl)carbonyl]amino]-benzoic acid] | 0 | 5 | 1 |
| Cc1ccc(C2=CCC(C)(C)c3ccc(C(=O)Oc4ccc(C(=O)O)cc4)cc32)cc1 [Compound 39, 4-[[(5,6-Dihydro-5,5-dimethyl-8-(4-methylphenyl)-2-naphthalenyl)carbonyl]oxy]-benzoic acid] | 9 | 7 | 1 |
| Cc1ccc(C2=CCC(C)(C)c3ccc(C(=O)Nc4ccc(C(=O)O)c(F)c4)cc32)cc1 [Compound 41, 2-Fluoro-4-[[(5,6-dihydro-5,5-dimethyl-8-(4methylphenyl)-2-naphthalenyl)carbonyl]amino]-benzoic acid] | 6 | 5 | 3 |
